Assay results: US20260306421A1, “SYSTEMS AND METHODS FOR TRANSDERMAN PATCH DELIVERY” (VITAMAX PATCH WHOLESALER LLC, priority 2022, published 2026)
Values belong to the molecule of their own block, whether it stands above or below them.

Experiments:
[1] = Solubility of iron chloride hexahydrate and iron complexes (visual / assayed); type: physicochemical
Description: Due to the high number of test samples (6 complexes plus the starting material, iron chloride hexahydrate) a visual solubility screen was used to screen the solubility in a range of solvents. […] Quantitative determination was performed by either incubating the complex in excess in the solvent using a shaking 37° C. water bath for 48 h or sonicating it for 2 hours at 40° C. or leaving overnight on a 50° C. hot plate. Once incubation period was completed, the exact solubility in a particular solvent was assayed (using the iron assay) after centrifugation (i.e. assay iron content in the supernatant using the Ferrozine® assay).

[2] = Franz cell porcine skin permeation and deposition of iron from solutions; type: in vitro ADME; conditions: for total delivered dose: PG solution; for permeation and deposition in the skin: solutions
Description: The permeation of the iron complexes from the formulations into and across porcine skin mounted on Franz cells with a receiver fluid was tested (FIG. 4). This was based on the principles of the FDA, SUPAC-SS guidelines. The developed colorimetric assay method was used for iron quantification.
(§1) On the day of the experiment, the skin was defrosted. For the full thickness studies, the subcutaneous fat removed (2.5 mm thick) and for the dermatomes skin studies the tissued was dermatomed to a 1 mm thickness. The tissue was cut into the appropriate size sections (2.19±0.21 cm^2) and mounted between donor and receiver compartments of Franz diffusion cells with the SC facing the donor compartment. Each cell was sealed using parafilm and 12 mm magnetic stir bars were placed into the receiver compartment. The receiver compartment was filled with the desired receiver solution and the Franz cells were placed in a stirring water bath at 37° C. Cells were allowed to equilibrate for 30 min after which the receiver fluid using was mixed using a syringe and the “zero hour” sample was withdrawn from the arm and compensate with the same volume of fresh pre-warmed solution. Following zero-hour sampling, the donor solution was placed in the donor compartment and covered with parafilm. Samples were withdrawn and compensated with fresh receiver solution at set time intervals for a 24 h duration. The iron in each sample was quantified using the method specified in Section 2.2.2.1. […] There was no matrix interference noted in the assay. […] For iron maltol a 80:20 PG:water receiver was used along with a complementary calibration for iron assay (iron chloride in PG:water). The donor solution for the iron maltol made at pH 1.6 was 200 μL of 100 mg/mL complex in Transcutul®, for iron maltol made at pH 4 the donor solution was 200 μL of 23 mg/mL complex in PG and for iron maltol made at pH 4 the donor solution was 150 μL of 16 mg/mL complex in 7.5:1.5:1:1 water:PG:dimethicone:ethanol.
Once the permeation studies were completed the donor solutions were collected into bottles containing the extraction solution. This was followed by skin surface cleaning using four cotton buds, the first two were wetted by the extraction fluid and the second two were used dry. Then two tape striping procedures were performed using 2 tapes to remove any iron on the skin surface with the tape being added to the donor solution and cotton buds in the donor recover vial. For the full skin thickness skin, the Stratum corneum, the dermal and the epidermal layers were isolated in the same way as the recovery method (Section 2.3.2.1). Extraction fluid (50:50 PBS:ethanol) was then added to the tissues, 4 mL to the Stratum corneum, and 2 mL for each of the epidermis and dermis. For the dermatomed skin the whole skin section was chopped up and placed in a 2 mL extraction fluid (ethanol).
The Stratum corneum samples were placed on vibrating plate for a minimum of 2 h to extract the iron and then vortexed prior assay. The epidermis, dermis or dermatomed samples however were incubated with the extraction fluid for 1 h after which were transferred to Eppendorf tubes, one stainless steel 5 mm bead was added and the samples were loaded into the TissuLyser II (Qiagen, Germany) for 30-15 min at 30 Hz. The samples were then centrifuged (5 min at 13,000 rpm) and supernatant assayed.

[3] = Visual skin damage / necrosis after iron permeation study; conditions: after 24 h permeation study, porcine skin
From the text: as §1

[4] = Iron complex adhesive compatibility and loading screen; type: physicochemical
Description: Pre-formulation studies were performed to determine the compatibility of the iron complexes with a range of transdermal patch adhesives (Table 15).
The compatibility of the complexes with the patch adhesives was assessed by mixing and visually checking the clarity of the mixture.
In the adhesives that were computable with the iron complexes the maximum drug loading of the complexes in the adhesive following solvent evaporation was determined. This was achieved by mixing the drug, adhesive and co-solvents until a clear solution was obtained at different drug:adhesive ratios and placing few drops of the mixture onto the patch backing sheet, leaving it to dry for 3-4 h, and examining the formed film on the surface of the backings for evidence of drug crystals.
Following complete drying of the solvents, the adhesive layer was covered by a release liner, compressed, and then cut using 34 mm circular manual die cutter (FIG. 23).

[5] = PG, 370 mg elemental iron dosed, 2 cm^2, 24 h

Compound: O.O.O.O.O.O.[Cl-].[Cl-].[Cl-].[Fe+3] [Iron chloride hexahydrate, reference compound]
Solubility, equivalent elemental iron ([1]; PG): 370 mg/mL | Solubility ([1]; PG, as iron chloride hexahydrate): 1400 mg/mL | elemental iron permeated the skin [2, 5]: 180 mg | elemental iron permeated, percent of dose [2, 5]: 48% | dose above the desired target (4.6 mg) ([2]; PG, 24 h): 40 times | skin damage / necrosis [3]: necrosis of the skin

Solubility of complex (visual) ([1]; Chloroform): ≥20 mg/mL Iron ethyl maltol* | Solubility of complex (visual) ([1]; Ethyl acetate): <8 mg/mL Iron ethyl maltol* | Solubility of complex (visual) ([1]; Glycerol): <8 mg/mL Iron ethyl maltol* | Solubility of complex (visual) ([1]; Hexane): <8 mg/mL Iron ethyl maltol* | Solubility of complex (visual) ([1]; Liquid Paraffin): <8 mg/mL Iron ethyl maltol* | Solubility of complex (visual) ([1]; Methanol): ≥20 mg/mL Iron ethyl maltol* | Solubility of complex (visual) ([1]; Miglyol): <8 mg/mL Iron ethyl maltol* | Solubility of complex (visual) ([1]; Oleic acid): <8 mg/mL Iron ethyl maltol* | Solubility of complex (visual) ([1]; Transcutul): <8 mg/mL Iron ethyl maltol* | Solubility of complex (visual) ([1]; Triaceten): <8 mg/mL Iron ethyl maltol* | total delivered dose ([2]; 24 h): 12 μg/cm^2 | compatibility with adhesives [4]: only compatible with DURO-TAK 9301 | (maximum) complex loading achieved in adhesive ([4]; methanol stock solution 10 mg/mL): 4% | complex loading achieved in adhesive patch ([4]; methanol stock solution 18 mg/mL): 8.5%
Compound: CCc1occc(=O)c1[O-].CCc1occc(=O)c1[O-].CCc1occc(=O)c1[O-].[Fe+3] [Iron ethyl maltol, iron ethyl maltol]
skin damage / necrosis [3]: did not cause any visible skin damage

Solubility of complex (visual) ([1]; PEG400): <6 mg/mg/mL | Solubility of complex (visual) ([1]; PG): <6 mg/mg/mL | Solubility of complex ([1]; Transcutul): 100 mg/mg/mL | Solubility, equivalent elemental iron ([1]; Transcutul): to 13 mg/ mg/mL | permeation and deposition in the skin ([2]; 24 h): permeated and deposited in the skin
Compound: Cc1occc(=O)c1[O-].Cc1occc(=O)c1[O-].Cc1occc(=O)c1[O-].[Fe+3] [Iron maltol made at pH 1.6, iron maltol]
skin damage / necrosis [3]: caused skin necrosis

Solubility of complex ([1]; PEG400): 20 mg/mg/mL | Solubility, equivalent elemental iron ([1]; PEG400): to 2.7 mg/ mg/mL | Solubility of complex ([1]; PG): 17 ± 5 mg/mg/mL | Solubility, equivalent elemental iron ([1]; PG): to 2.3 ± 0.6 mg/mL | Solubility ([1]; PG and PEG400 (conclusions)): 18 mg/mL | Solubility of complex (visual) ([1]; Transcutul): <6 mg/mL | total delivered dose ([2]; 24 h): 65 μg/cm^2 | permeation and deposition in the skin ([2]; 24 h): permeated and deposited in the skin
Compound: Cc1occc(=O)c1[O-].Cc1occc(=O)c1[O-].Cc1occc(=O)c1[O-].[Fe+3] [Iron maltol made at pH 4, iron maltol]
skin damage / necrosis [3]: without inducing skin necrosis
